Species: Rattus norvegicus
Assay: DrugMatrix - Regimen: Daily Repeat
Assay type: toxicity, organism-based, Sprague-Dawley
Design: regimen Daily Repeat, gender Male, age 6-8 weeks
Conditions: in vivo, po, route oral GAVAGE, […]; for URIC ACID / ALANINE AMINOTRANSFERASE / ALKALINE PHOSPHATASE / ASPARTATE AMINOTRANSFERASE / BLOOD UREA NITROGEN / CARBON DIOXIDE / CHLORIDE / CHOLESTEROL / CREATINE PHOSPHOKINASE / CREATININE / GLUCOSE / LACTATE DEHYDROGENASE / LIPASE / PHOSPHORUS / POTASSIUM / SODIUM / TOTAL BILIRUBIN / TOTAL PROTEIN: tissue Plasma; for ABSOLUTE BASOPHIL / ABSOLUTE EOSINOPHIL / ABSOLUTE LYMPHOCYTE / ABSOLUTE MONOCYTE / ABSOLUTE SEGMENTED NEUTROPHIL / BASOPHIL / EOSINOPHIL / ERYTHROCYTE COUNT / HEMATOCRIT / HEMOGLOBIN / LEUKOCYTE COUNT / LYMPHOCYTE / MEAN CORPUSCULAR HEMOGLOBIN / MEAN CORPUSCULAR HEMOGLOBIN CONCENTRATION / MEAN CORPUSCULAR VOLUME / MONOCYTE / NEUTROPHIL / NUCLEATED RED BLOOD CELLS / PLATELET COUNT: tissue Blood
[1] = 10 mg/kg, 120 h, dose level Low, time 5 day
[2] = 1100 mg/kg, 72 h, dose level High, time 3 day
[3] = 1100 mg/kg, 120 h, dose level High, time 5 day

CCOC(=O)C1=C(C)NC(C)=C(C(=O)OC)C1c1cccc([N+](=O)[O-])c1 (stereo unspecified) [NITRENDIPINE]
URIC ACID (10 mg/kg, 72 h, dose level Low, time 3 day): 0.7 mg/dL | ABSOLUTE BASOPHIL [1]: 0 CELLS/uL | ABSOLUTE EOSINOPHIL [1]: 0 CELLS/uL | ABSOLUTE LYMPHOCYTE [1]: 10446 CELLS/uL | ABSOLUTE MONOCYTE [1]: 116 CELLS/uL | ABSOLUTE SEGMENTED NEUTROPHIL [1]: 1038 CELLS/uL | BASOPHIL [1]: 0% | EOSINOPHIL [1]: 0% | ERYTHROCYTE COUNT [1]: 5.06 x10E6/uL | HEMATOCRIT [1]: 32.77% | HEMOGLOBIN [1]: 12.73 G/DL | LEUKOCYTE COUNT [1]: 11.6 x10E3/uL | LYMPHOCYTE [1]: 90% | MEAN CORPUSCULAR HEMOGLOBIN [1]: 25.2 pg | MEAN CORPUSCULAR HEMOGLOBIN CONCENTRATION [1]: 38.87 G/DL | MEAN CORPUSCULAR VOLUME [1]: 64.8 fL | MONOCYTE [1]: 1% | NEUTROPHIL [1]: 9% | NUCLEATED RED BLOOD CELLS [1]: 0 /100WBC | PLATELET COUNT [1]: 1057 x10E3/uL | ALANINE AMINOTRANSFERASE [1]: 72 u/L | ALKALINE PHOSPHATASE [1]: 422.33 u/L | ASPARTATE AMINOTRANSFERASE [1]: 98 u/L | BLOOD UREA NITROGEN [1]: 15 mg/dL | CARBON DIOXIDE [1]: 32.33 mmol/L | CHLORIDE [1]: 101 MEQ/L | CHOLESTEROL [1]: 70.67 mg/dL | CREATINE PHOSPHOKINASE [1]: 376.67 u/L | CREATININE [1]: 0.17 mg/dL | GLUCOSE [1]: 143 mg/dL | LACTATE DEHYDROGENASE [1]: 166.67 u/L | LIPASE [1]: 9.67 u/L | PHOSPHORUS [1]: 10.6 mg/dL | POTASSIUM [1]: 5.57 MEQ/L | SODIUM [1]: 144.07 MEQ/L | TOTAL BILIRUBIN [1]: 0.23 mg/dL | TOTAL PROTEIN [1]: 6.03 G/DL | URIC ACID [1]: 0.53 mg/dL | ABSOLUTE BASOPHIL [2]: 0 CELLS/uL | ABSOLUTE EOSINOPHIL [2]: 21.67 CELLS/uL | ABSOLUTE LYMPHOCYTE [2]: 8591 CELLS/uL | ABSOLUTE MONOCYTE [2]: 68 CELLS/uL | ABSOLUTE SEGMENTED NEUTROPHIL [2]: 719.33 CELLS/uL | BASOPHIL [2]: 0% | EOSINOPHIL [2]: 0.33% | ERYTHROCYTE COUNT [2]: 5.96 x10E6/uL | HEMATOCRIT [2]: 36.87% | HEMOGLOBIN [2]: 14.27 G/DL | LEUKOCYTE COUNT [2]: 9.4 x10E3/uL | LYMPHOCYTE [2]: 91% | MEAN CORPUSCULAR HEMOGLOBIN [2]: 23.93 pg | MEAN CORPUSCULAR VOLUME [2]: 61.87 fL | MONOCYTE [2]: 0.67% | NEUTROPHIL [2]: 8% | NUCLEATED RED BLOOD CELLS [2]: 0 /100WBC | PLATELET COUNT [2]: 1329.67 x10E3/uL | ALANINE AMINOTRANSFERASE [2]: 96.67 u/L | ALKALINE PHOSPHATASE [2]: 346 u/L | ASPARTATE AMINOTRANSFERASE [2]: 88.67 u/L | BLOOD UREA NITROGEN [2]: 13.33 mg/dL | CARBON DIOXIDE [2]: 30 mmol/L | CHLORIDE [2]: 103.33 MEQ/L | CHOLESTEROL [2]: 57.33 mg/dL | CREATINE PHOSPHOKINASE [2]: 323.33 u/L | CREATININE [2]: 0.14 mg/dL | GLUCOSE [2]: 160 mg/dL | LACTATE DEHYDROGENASE [2]: 142.67 u/L | LIPASE [2]: 9.67 u/L | PHOSPHORUS [2]: 9.8 mg/dL | POTASSIUM [2]: 4.65 MEQ/L | SODIUM [2]: 145.2 MEQ/L | TOTAL BILIRUBIN [2]: 0.2 mg/dL | TOTAL PROTEIN [2]: 5.2 G/DL | URIC ACID [2]: 0.4 mg/dL | ABSOLUTE BASOPHIL [3]: 0 CELLS/uL | ABSOLUTE EOSINOPHIL [3]: 24.33 CELLS/uL | ABSOLUTE LYMPHOCYTE [3]: 5730.33 CELLS/uL | ABSOLUTE MONOCYTE [3]: 63.33 CELLS/uL | ABSOLUTE SEGMENTED NEUTROPHIL [3]: 515.33 CELLS/uL | BASOPHIL [3]: 0% | EOSINOPHIL [3]: 0.33% | ERYTHROCYTE COUNT [3]: 6.09 x10E6/uL | HEMATOCRIT [3]: 37.57% | HEMOGLOBIN [3]: 14.23 G/DL | LEUKOCYTE COUNT [3]: 6.33 x10E3/uL | LYMPHOCYTE [3]: 90.67% | MEAN CORPUSCULAR HEMOGLOBIN [3]: 23.4 pg | MEAN CORPUSCULAR HEMOGLOBIN CONCENTRATION [3]: 37.87 G/DL | MEAN CORPUSCULAR VOLUME [3]: 61.7 fL | MONOCYTE [3]: 1% | NEUTROPHIL [3]: 8% | NUCLEATED RED BLOOD CELLS [3]: 0 /100WBC | PLATELET COUNT [3]: 1353.67 x10E3/uL | ALANINE AMINOTRANSFERASE [3]: 65.67 u/L | ALKALINE PHOSPHATASE [3]: 214.33 u/L | ASPARTATE AMINOTRANSFERASE [3]: 85.67 u/L | BLOOD UREA NITROGEN [3]: 11.67 mg/dL | CARBON DIOXIDE [3]: 29 mmol/L | CHLORIDE [3]: 102.67 MEQ/L | CHOLESTEROL [3]: 58.33 mg/dL | CREATINE PHOSPHOKINASE [3]: 328.33 u/L | CREATININE [3]: 0.15 mg/dL | GLUCOSE [3]: 133.67 mg/dL | LACTATE DEHYDROGENASE [3]: 156.33 u/L | LIPASE [3]: 11.67 u/L | PHOSPHORUS [3]: 8.93 mg/dL | POTASSIUM [3]: 4.8 MEQ/L | SODIUM [3]: 147.07 MEQ/L | TOTAL BILIRUBIN [3]: 0.2 mg/dL | TOTAL PROTEIN [3]: 5.4 G/DL | URIC ACID [3]: 0.47 mg/dL
